# Test results as given in patent US12529022B2, “Human organ-on-chip models for predictive screening” (The Trustees of Columbia University in the City of New York, priority 2018, dated 2026).
# Experiments:
# [1] = test system: non-metastatic (RD-ES cell line derived) Ewing sarcoma OOC; test: Non-metastatic Ewing sarcoma OOC, luciferase luminescence (cancer cell number and viability); assay type: cell-based, human; conditions: 12 μM
# Method: Drug treatment experiments recapitulating the patient treatment regimens and the patient plasma concentration of 12 μM of linsitinib were then carried out on the nonmetastatic and metastatic TE-ES and OS models. FIGS. 42 and 43 are graphs illustrating non-metastatic (RD-ES cell line derived, FIG. 42) and metastatic (SK-N-MC cell line derived, FIG. 43) Ewing sarcoma OOCs were exposed to linsitinib (12 μM) according to the drug treatment regimen. Luminescence as a function of cancer cell number and viability was measured (mean±s.e.m., n=6 for day 3, and n=3 for day 7 and 21, biologically independent per group). Significance was determined by unpaired two-tailed Student's t test of treatment group at specific day with respective control; *P<0.05; **P<0.01; ***P<0.001. Tissue engineered bone tumor models: Using an established protocol, expanded MSCs were seeded into the bone matrix scaffolds (4 mm×4 mm×1 mm) at a concentration of 10^6 cells per scaffold, using 40 μL of medium. The cells were allowed to attach for 2 hours, and then supplemented with additional mesenchymal stem cell medium overnight. The following day, osteogenic differentiation of the seeded cells was initiated by addition of low glucose DMEM supplemented with 1 μM dexamethasone (Sigma-Aldrich), 10 mM β-glycerophosphate (SigmaAldrich), and 50 μM L-ascorbic acid-2-phosphate (Sigma Aldrich). Each scaffold was incubated in 4 mL of osteogenic media, with media changes three times a week, for 3 weeks, allowing for the MSCs to differentiate into functional, maturing osteoblasts. Two weeks following the initiation of osteogenic differentiation, aggregates of tumor cells were prepared as described previously. Briefly, 0.3×10^6 cells were used to form ES aggregates and 0.5×10^6 cells were used to form OS aggregates. After 1 week of culture, the primary bone tumor aggregates were infused into the differentiated osteoblastseeded bone scaffolds (3 aggregates per scaffold, placed apart of each other). Tumor models were established for each of the two ES cell types (non-metastatic RD-ES, metastatic SK-NMC) and three OS cell types (non-metastatic U2-OS and Saos2, metastatic KHOS/NP). TE-RD-ES were cultured in the RPMI medium, TE-U-2 OS in DMEM, TE-Saos2 in McCoy's 5A, and TESK-N-MC and TE-KHOS/NP both in EMEM. Scaffolds without aggregates were used as healthy bone controls for each tumor model (termed TE-bone) and were cultured in the respective cancer cell line medium. […] Cell viability: Cancer cell viability was measured for GFP-Luciferase labelled cancer cells using ONE-Glo luciferase substrate that was prepared according to manufacturer's protocol (Promega). […] Cardiac cell viability was assessed through the Pierce LDH Cytotoxicity Assay Kit (Thermo Fisher Scientific). […]
# [2] = test system: metastatic (SK-N-MC cell line derived) Ewing sarcoma OOC; test: Metastatic Ewing sarcoma OOC, luciferase luminescence (cancer cell number and viability); assay type: cell-based, human; conditions: 12 μM
# Method: Drug treatment experiments recapitulating the patient treatment regimens and the patient plasma concentration of 12 μM of linsitinib were then carried out on the nonmetastatic and metastatic TE-ES and OS models. FIGS. 42 and 43 are graphs illustrating non-metastatic (RD-ES cell line derived, FIG. 42) and metastatic (SK-N-MC cell line derived, FIG. 43) Ewing sarcoma OOCs were exposed to linsitinib (12 μM) according to the drug treatment regimen. Luminescence as a function of cancer cell number and viability was measured (mean±s.e.m., n=6 for day 3, and n=3 for day 7 and 21, biologically independent per group). Significance was determined by unpaired two-tailed Student's t test of treatment group at specific day with respective control; *P<0.05; **P<0.01; ***P<0.001. Tissue engineered bone tumor models: Using an established protocol, expanded MSCs were seeded into the bone matrix scaffolds (4 mm×4 mm×1 mm) at a concentration of 10^6 cells per scaffold, using 40 μL of medium. The cells were allowed to attach for 2 hours, and then supplemented with additional mesenchymal stem cell medium overnight. The following day, osteogenic differentiation of the seeded cells was initiated by addition of low glucose DMEM supplemented with 1 μM dexamethasone (Sigma-Aldrich), 10 mM β-glycerophosphate (SigmaAldrich), and 50 μM L-ascorbic acid-2-phosphate (Sigma Aldrich). Each scaffold was incubated in 4 mL of osteogenic media, with media changes three times a week, for 3 weeks, allowing for the MSCs to differentiate into functional, maturing osteoblasts. Two weeks following the initiation of osteogenic differentiation, aggregates of tumor cells were prepared as described previously. Briefly, 0.3×10^6 cells were used to form ES aggregates and 0.5×10^6 cells were used to form OS aggregates. After 1 week of culture, the primary bone tumor aggregates were infused into the differentiated osteoblastseeded bone scaffolds (3 aggregates per scaffold, placed apart of each other). Tumor models were established for each of the two ES cell types (non-metastatic RD-ES, metastatic SK-NMC) and three OS cell types (non-metastatic U2-OS and Saos2, metastatic KHOS/NP). TE-RD-ES were cultured in the RPMI medium, TE-U-2 OS in DMEM, TE-Saos2 in McCoy's 5A, and TESK-N-MC and TE-KHOS/NP both in EMEM. Scaffolds without aggregates were used as healthy bone controls for each tumor model (termed TE-bone) and were cultured in the respective cancer cell line medium. All culture media were supplemented with 10% FBS and 1% penicillin/streptomycin. […] Tissues were randomly assigned to experimental groups. Medium was changed every day. Cardiac tissues were exposed to linsitinib for 3 days. The bone tumor models were exposed to a physiological treatment regimen consisted of cycles that involved 3 consecutive days of treatment followed by 4 days without drug, unless otherwise stated. Cell viability: Cancer cell viability was measured for GFP-Luciferase labelled cancer cells using ONE-Glo luciferase substrate that was prepared according to manufacturer's protocol (Promega). Samples were collected following 3, 7, and 21-day cycles of Linsitinib treatment. Cardiac cell viability was assessed through the Pierce LDH Cytotoxicity Assay Kit (Thermo Fisher Scientific). Samples were collected at 0 h, 1 h and 72 h.
# human cardiac OOC [3] = test: Cardiac OOC hydrogen peroxide (ROS-Glo H2O2) assay; assay type: cell-based; conditions: after linsitinib treatment
# Method: (§1) Tissues were randomly assigned to experimental groups. Medium was changed every day. Cardiac tissues were exposed to linsitinib for 3 days.
# Hydrogen peroxide assay: After drug treatment, hydrogen peroxide (H2O2) levels in cardiac tissues were measured using ROS-Glo™ H2O2 Assay (Promega).
# human cardiac OOC [4] = test: Cardiac OOC extracellular LDH cytotoxicity assay; assay type: cell-based; conditions: after linsitinib exposure
# Method: as §1
# Cell viability: Cancer cell viability was measured for GFP-Luciferase labelled cancer cells using ONE-Glo luciferase substrate that was prepared according to manufacturer's protocol (Promega). Samples were collected following 3, 7, and 21-day cycles of Linsitinib treatment. Cardiac cell viability was assessed through the Pierce LDH Cytotoxicity Assay Kit (Thermo Fisher Scientific). Samples were collected at 0 h, 1 h and 72 h.
# human cardiac OOC [5] = test: Cardiac OOC calcium transients, isoproterenol response after linsitinib exposure; assay type: cell-based; conditions: tissues exposed to linsitinib, then 1 μM isoproterenol
# Method: Isoproterenol response: Samples were loaded with Fluo-4, AM, cell permeant (Invitrogen) in RPMI Medium 1630 supplemented with B27 for 30 min at 37° C. […] Videos were analysed in MATLAB using a custom script that calculated the temporal changes in calcium fluorescence intensity. Each frame was normalized to a baseline background region chosen by the user to give baseline-corrected changes in minimum and maximum fluorescence values for each frame. The temporal changes in fluorescence intensity were presented in calcium transient traces from which the measurements were obtained. The calcium transient timing was determined as the peak-to-peak values of two successive beats as defined by the peak maxima.
# Calcium transient traces were also analyzed 10 minutes after exposure to 1 μM isoproterenol hydrochloride, diluted in RPMI Medium 1630 supplemented with B27™.
# [6] = patients with other types of cancers; cited from earlier work
compound,measurement,setting,value
"C[C@]1(O)C[C@@H](c2nc(-c3ccc4ccc(-c5ccccc5)nc4c3)c3c(N)nccn32)C1 [linsitinib, Linsitinib (OSI-906)]",course of treated cancer cell population,[1]; 21-day treatment cycle,stopped expanding after the treatment
same,luminescence (cancer cell number and viability) vs control,[1]; day 3,significant drug response
same,luminescence (cancer cell number and viability) vs control,[1]; day 7,significant responses
same,luminescence (cancer cell number and viability) vs control,[1]; day 21,significant responses
same,course of treated cancer cell population,[2]; 21-day treatment cycle,continued to expand throughout the 21-day treatment cycle
same,drug efficacy after day 3,[2]; after 3 days,decrease in drug efficacy
same,luminescence (cancer cell number and viability) vs control,[2]; day 3,significant drug response
same,luminescence (cancer cell number and viability) vs control,[2]; day 7,significant responses
same,luminescence (cancer cell number and viability) vs control,[2]; day 21,significant responses
same,levels of reactive oxygen species (hydrogen peroxide formation),human cardiac OOC [3],not observed
same,extracellular lactate dehydrogenase (LDH),human cardiac OOC [4],increased levels
same,inotropic response to isoproterenol,human cardiac OOC [5],inotropic responses were not observed
same,proarrhythmic events in calcium transients,human cardiac OOC [5],proarrhthymic events
same,cardiotoxicity in clinical trials,[6],"proarrhythmic events, like tachycardia and atrial fibrillation"
